Entries after “also recorded” stand apart in the source; their conditions may differ.
Key:
[1] = system: MM.1S cells; assay: MM.1S cell viability (WST); conditions: for combination effect on viability (isobologram, CI): 48 hours, WST
Experimental: FIGS. 4A and 4B show multiple myeloma 1S (MM.1S) cells treated with RA190, WL40, and WL44 at the indicated concentrations for 24 hours. Wst-1 assay was used to test cell viability.
In FIG. 13B, multiple myeloma cells (MM.1S) were treated with RA190 or compound JQRA at the indicated concentrations for 72 hours, and the percentage of viable cells was measured.
Purified CD138^+ patient MM cells, which were treated with DMSO control or WL40 at indicated concentrations for 48 hours, followed by assessment for cell viability using CellTiter-Glo assay (mean±SD of triplicate cultures; p<0.001). […] Normal PBMCs from healthy donors were treated with DMSO control or WL40 at indicated concentrations for 48 hours, and then analyzed for cell viability using CellTiter-Glo assay (mean±SD of quadruplicate cultures). […] MM.1S cells were cultured with or without patient BMSCs in the presence or absence of WL40 for 48 hours, and cell proliferation was measured by WST assay (mean±SD; n=3; p<0.0001). […] MM.1S cells were cultured with or without patient pDCs in the presence or absence of WL40 for 48 hours, and cell proliferation was measured by WST assay (mean±SD; n=3; p<0.0001).

[2] = biological target: CRBN-DDB1 (Homo sapiens, UniProt Q96SW2); assay: CRBN AlphaScreen (displacement of biotinylated-pomalidomide probe); type: binding; conditions: in vitro AlphaScreen; thalidomide and lenalidomide as positive controls
[3] = system: human MM.1S MM tumors; assay: Human MM xenograft model; type: in vivo; conditions: for host survival / tumor growth: MM.1S-bearing mice, i.p., WL40 14.7 μM/kg, RA190 26.8 μM/kg; for host survival: twice weekly; for tumor growth: twice weekly for 18 days
Experimental: FIG. 23B are Kaplan-Meier plots which show survival of mice. […] The lysates were subjected to the immunoblot analysis using anti-polyubiquitin, anti-cleaved-caspase-8, or anti-β-actin Abs. FIG. 23D show tumor sections from the vehicle control, and WL40-treated mice that were stained with anti-polyubiquitin, Ki67, caspase-3 (cleaved form), and CD31 antibodies. Scale bar, 10 μm.
Animal model studies were performed as described previously.^32, 33, 36 Briefly, CB17 SCID mice were subcutaneously inoculated with 5.0×10^6 MM.1S cells. When tumors were measurable (100 mm^3) at approximately 3 weeks after MM-cell injection, mice (10 mice/group) were treated on a twice-weekly schedule with vehicle alone, WL40, or RA190. Mice were euthanized when tumor volume reached institutional limit (2000 mm^3). All animal experiments protocols were approved by and conformed to the relevant regulatory standards of the Institutional Animal Care and Use Committee at the Dana-Farber Cancer Institute.
Tumors were harvested from WL40-treated and control animals. Tumor sections were fixed and paraffin embedded for immunostaining to detect growth inhibition (Ki67), apoptosis (cleaved caspase-3), poly-ubiquitination (PolyU), and angiogenesis (CD31), as described previously.^32, 34 Tumor protein lysates from control vehicle- and WL40-treated mice were analyzed for caspase-8, poly-Ubiquitin or β-actin level using immunoblot analyses.
To fully understand the therapeutic potential of the RPN13 degrader, the in vivo efficacy of WL40 was evaluated using the human plasmacytoma xenograft mouse model.^3, 34 This model has been useful in validating novel anti-MM therapies bortezomib, carfilzomib, ixazomib, lenalidomide, and pomalidomide, which have translated to clinical trials and FDA approval.

[4] = system: UPR proteins (BIP, PERK, phosphorylated eIF2α, calnexin); assay: UPR protein immunoblot; type: cell-based, Human; conditions: ANBL6.BR (1 μM) and MM.1S (WL40 200 nM, RA190 300 nM)
[5] = biological target: RPN13 (Homo sapiens, UniProt Q16186); assay: Rpn13 immunoblot in MM.1S cells; type: cell-based; parameters: endogenous in cells; host or cells: MM.1S; MM.1S-CRBN KO; RPMI-8226; ANBL6.BR; conditions: MM.1S cells; for Rpn13 levels (immunoblot): 200 nM, 400 nM, 800 nM, 4, 8, 16 hours
Experimental: Protein lysates were loaded on SDS-PAGE and transferred to PVDF membrane, and then immunoblotted with anti-alpha tubulin and Rpn13 antibodies.
In FIG. 17, MM.1S cells were treated with RA190 or JQRA at 200 nM and 400 nM, respectively, for 48 hours; and treated with RA190 or JQRA at 200 nM and 800 nM, respectively, for 48 hours. Protein lysates were loaded on SDS-PAGE and transferred to PVDF membrane, and then immunoblotted with anti-alpha tubulin and Rpn13 antibodies.
MM.1S cells, which were treated with DMSO control, bortezomib, or WL40 at indicated concentration for 3 hours; protein lysates were analyzed for different proteasome activities (CT-L, chymotrypsin-like; T-L, trypsin-like; C-L, caspase-like). FIG. 20B is a bar graph showing percent proteasome activity after normalization with DMSO control (mean±SD; n=3). Recombinant 20S proteasome was incubated with DMSO, bortezomib, or WL40 for 30 minutes, followed by assessment of the above-noted proteasome activities. FIG. 20C MM.1S cells were pretreated with exemplary proteasome inhibitor MG132 (10 μM) for 1 hour, followed by addition of WL40 (400 nM) for 8 hours. […] Total protein lysates were subjected to immunoblots for Rpn13 and α-tubulin. […] FIG. 20E ANBL6.BR cells were treated with WL40 (400 nM) or RA190 (500 nM) for 16 hours; protein lysates were subjected to immunoblot analysis using anti-Rpn13 or anti-β-actin Abs.
Cellular protein extracts were prepared using RIPA lysis buffer (50 mM Tris-HCl, 150 mM NaCl, 1% NP-40, 0.5% sodium deoxycholate, and 0.1% SDS). Protein lysates were subjected to immunoblotting using antibodies against poly ADP ribose polymerase (PARP, BD Bioscience Pharmingen, San Diego, Calif.), caspase 3, caspase 8, p53 (Santa Cruz Biotechnology), caspase 9, p-eIF2a (Abeam, Cambridge, Mass.), caspase 7, cyclin B1, CDC25C, CDCl2, p21, Rpn13, PERK, BIP, Calnexin, GFP, LC3A/B, α-tubulin (Cell Signaling, Beverly, Mass.), polyubiquitin (Enzo Life Sciences, Inc., Farmingdale, N.Y.), or β-actin (Sigma-Aldrich, St. Louis, Mo.).
Next, it was examined whether WL40 decreases cellular Rpn13 levels in MM cells. MM.1S cells were treated with various concentrations of WL40 (20 0 nM, 400 nM, or 800 nM) for 4 hours, 8 hours, and 16 hours; protein lysates were then analyzed for Rpn13 levels using immunoblot analysis. […] Decrease in Rpn13 levels was detectable as early as 8 hours after WL40 treatment and maximally (95%) reduced at 16 hours. Rpn13 protein level reduction was not observed with RA190 treatment (FIG. 19E, lower panel). There was no change in protein levels of tubulin, used as a loading control (FIG. 19E). To further corroborate the findings, MM.1S cells were treated with WL40, and then analyzed intracellular alterations in Rpn13 using flow cytometry.

[6] = system: multiple myeloma cell lines; assay: Viability of a panel of multiple myeloma cell lines; type: cell-based, Human
From the text: FIGS. […] Wst-1 assay was used to test cell viability. FIGS. 6A and 6B show the effect of exemplary bifunctional compounds WL40 and WL44 on multiple myeloma cell lines.

Chain of RPN13 (Q16186 whole entry): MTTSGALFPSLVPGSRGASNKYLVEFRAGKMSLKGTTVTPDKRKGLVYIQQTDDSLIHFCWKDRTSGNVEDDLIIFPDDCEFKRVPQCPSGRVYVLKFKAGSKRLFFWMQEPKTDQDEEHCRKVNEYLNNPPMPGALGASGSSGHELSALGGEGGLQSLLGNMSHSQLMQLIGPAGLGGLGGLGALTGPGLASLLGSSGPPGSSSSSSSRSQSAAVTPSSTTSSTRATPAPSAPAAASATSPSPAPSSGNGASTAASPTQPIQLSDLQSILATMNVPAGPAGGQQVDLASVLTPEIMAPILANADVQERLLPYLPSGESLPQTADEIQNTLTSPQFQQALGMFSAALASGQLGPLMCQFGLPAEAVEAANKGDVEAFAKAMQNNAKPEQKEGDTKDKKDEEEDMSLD
Chain of CRBN-DDB1 (Q96SW2 whole entry): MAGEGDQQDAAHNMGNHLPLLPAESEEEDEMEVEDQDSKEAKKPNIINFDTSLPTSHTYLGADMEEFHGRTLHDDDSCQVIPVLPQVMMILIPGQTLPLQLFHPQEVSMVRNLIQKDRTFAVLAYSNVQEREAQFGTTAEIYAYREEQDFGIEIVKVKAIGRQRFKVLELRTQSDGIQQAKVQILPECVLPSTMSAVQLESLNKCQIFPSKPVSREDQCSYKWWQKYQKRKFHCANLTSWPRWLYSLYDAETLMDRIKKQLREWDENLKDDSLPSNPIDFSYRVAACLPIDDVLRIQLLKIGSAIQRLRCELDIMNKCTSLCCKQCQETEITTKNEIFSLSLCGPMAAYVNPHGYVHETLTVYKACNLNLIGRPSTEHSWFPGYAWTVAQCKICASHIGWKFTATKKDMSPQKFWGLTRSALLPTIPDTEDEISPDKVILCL
Chain of CRBN-DDB1 (Q16531 whole entry partner): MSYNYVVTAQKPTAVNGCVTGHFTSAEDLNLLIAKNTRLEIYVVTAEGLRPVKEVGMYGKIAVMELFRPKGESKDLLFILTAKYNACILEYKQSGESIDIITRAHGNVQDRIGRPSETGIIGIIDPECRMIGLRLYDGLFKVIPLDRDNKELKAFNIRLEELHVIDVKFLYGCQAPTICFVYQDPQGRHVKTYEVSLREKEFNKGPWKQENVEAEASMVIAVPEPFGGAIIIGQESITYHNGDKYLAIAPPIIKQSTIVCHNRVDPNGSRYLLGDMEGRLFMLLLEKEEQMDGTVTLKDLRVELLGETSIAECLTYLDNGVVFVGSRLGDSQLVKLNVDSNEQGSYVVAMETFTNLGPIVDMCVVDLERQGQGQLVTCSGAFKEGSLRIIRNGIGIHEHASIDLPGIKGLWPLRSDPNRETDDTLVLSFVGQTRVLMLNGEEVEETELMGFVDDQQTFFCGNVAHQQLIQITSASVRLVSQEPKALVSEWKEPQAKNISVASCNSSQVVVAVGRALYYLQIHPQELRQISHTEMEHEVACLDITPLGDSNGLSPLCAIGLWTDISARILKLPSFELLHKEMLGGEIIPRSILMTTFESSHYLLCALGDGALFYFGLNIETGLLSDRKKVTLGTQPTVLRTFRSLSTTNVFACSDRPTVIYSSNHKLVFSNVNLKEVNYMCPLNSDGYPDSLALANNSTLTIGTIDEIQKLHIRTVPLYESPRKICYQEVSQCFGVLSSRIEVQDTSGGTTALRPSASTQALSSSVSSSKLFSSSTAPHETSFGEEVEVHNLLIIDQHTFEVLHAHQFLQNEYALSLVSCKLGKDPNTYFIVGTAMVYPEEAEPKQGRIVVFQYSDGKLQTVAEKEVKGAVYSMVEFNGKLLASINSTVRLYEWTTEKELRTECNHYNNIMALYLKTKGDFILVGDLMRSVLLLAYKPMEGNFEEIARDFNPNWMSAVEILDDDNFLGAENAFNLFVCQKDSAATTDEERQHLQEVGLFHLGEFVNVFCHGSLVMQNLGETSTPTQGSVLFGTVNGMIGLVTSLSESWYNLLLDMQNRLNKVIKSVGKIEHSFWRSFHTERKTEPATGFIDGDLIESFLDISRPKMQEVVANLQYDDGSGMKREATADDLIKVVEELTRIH

| SMILES | cytotoxicity (percentage of viable cells) ([1]; 72 hours) | CRBN binding [2] | host survival [3] | tumor growth [3] | induction of UPR signaling [4] | Rpn13 levels (immunoblot) [5] | cytotoxicity (percentage of viable cells) ([6]; different multiple myeloma cell lines, 72 hours) | cell viability IC50 ([1]; 24 hours, Wst-1) | combination effect on viability (isobologram, CI) ([1]; WL40 plus bortezomib) | combination effect on viability (isobologram, CI) ([1]; WL40 plus lenalidomide) | combination effect on viability (isobologram, CI) ([1]; WL40 plus pomalidomide) | tolerability ([3]; WL40-treated mice) | body weight loss ([3]; WL40-treated mice (data not shown)) | PolyUb proteins in harvested tumors ([3]; relative to tumors from control mice) | angiogenesis in harvested tumors (CD31) ([3]; tumor sections) | apoptosis in harvested tumors (cleaved caspase-3) ([3]; tumor sections) | proliferation in harvested tumors (Ki67) ([3]; tumor sections) | time at which decrease in Rpn13 levels is detectable ([5]; after WL40 treatment) | maximal reduction of Rpn13 levels ([5]; at 16 hours) | cell viability IC50 ([6]; multiple myeloma cell lines, 48 hours, Wst-1) |
| --- | --- | --- | --- | --- | --- | --- | --- | --- | --- | --- | --- | --- | --- | --- | --- | --- | --- | --- | --- | --- |
| Cl.N[C@@H](Cc1ccccc1)C(=O)N1C/C(=C/c2ccc(Cl)c(Cl)c2)C(=O)/C(=C\c2ccc(Cl)c(Cl)c2)C1 [RA190, reference compound] | stronger MM cytotoxicity compared to exemplary compound JQRA; also recorded: more robust MM cytotoxicity | did not show any binding to CRBN | extends mice survival | attenuates MM tumor progression | delayed kinetics and to a lesser extent than Rpn13 degrader WL40 | not observed | stronger cytotoxicity than JQRA | – | – | – | – | – | – | – | – | – | – | – | – | – |
| O=C1CCC(N2C(=O)c3cccc(NCCOCCOCCOCCC(=O)N[C@@H](Cc4ccccc4)C(=O)N4C/C(=C\c5ccc(Cl)c(Cl)c5)C(=O)/C(=C/c5ccc(Cl)c(Cl)c5)C4)c3C2=O)C(=O)N1 (stereo partly shown) [WL40] | – | interacts with the E3 ubiquitin receptor CRBN | prolongs host survival | inhibits xenografted human MM cell growth; also recorded: more potent in vivo anti-MM activity | rapid and robust induction of UPR proteins | degrade Rpn13; also recorded: marked decrease in Rpn13 levels | – | lower IC50 compared to compound RA190 | synergistic anti-MM activity | synergistic anti-MM activity | synergistic anti-MM activity | well tolerated | no significant weight loss | increased accumulation of PolyUb proteins | blocks angiogenesis | induces apoptosis | decreases proliferation | 8 h | 95% | high IC50 in several cell lines |

From patent publication US11702402B2, “Small molecules that block proteasome-associated ubiquitin receptor RPN13 function and uses thereof” (DANA-FARBER CANCER INSTITUTE, INC., priority 2018, dated 2023)
